Reference: patent US20040014772A1, “Compositions and methods for treating glomerular disorders” (priority 2000, published 2004)
“Also recorded” adds a separate entry of the source.

Tests used:
[1] = system: glomerular epithelial cells GEC; experiment: PAN induced catalytic iron release from GEC (bleomycin detectable iron); type: cell-based, rat; settings: PAN 1.5 mM 1 h; preincubation CM 2 mM, PB 25 μM, RN 1 mM, PIP 0.2 mM, pyruvate 10 mM
Experimental: Iron capable of catalyzing free radical reactions was measured by bleomycin detectable iron assay as described by Gutteridge et al, 1981, Biochem. J. 199:263-265, Gutteridge et al, 1982, Biochem. J. 206:605-609, Baliga et al, 1993, Bioche. J. 291:901-905, Baliga et al, 1996, Kidney Int. 49:362-369, Baliga et al, Kidney Int. 53:394-401, Ueda et al, 1996, Kidney Int. 49:370-373, Baliga et al, 1998, Kidney Int. 54:1562-1569.
Confluent cell monolayer was washed three times with Chelex-treated HBSS to remove as much contaminating iron as possible. The GEC monolayer was then incubated in Chelex-treated HBSS with cytotoxic dose of PAN for a period time at 37° C. before substantial cell killing and after significant iron release occurs (1.5 mM, 60 min, based on a time course study on iron release induced by PAN, data not shown). The incubation medium was then collected for the measurement of catalytic iron using bleomycin detectable iron assay as mentioned above. To determine the effect of CYP inhibitors on the iron release, GEC monolayer was preincubated with CM (2 mM), RN (1 mM, as a control of CM) for 30 min or PB (25 uM) for 60 min in Chelex-treated HBSS at 37° C. After the incubation, the medium with CYP inhibitor was discarded and then the cell monolayers were washed twice with chelex-treated HBSS prior to the incubation of PAN.

[2] = system: CYP2B1; experiment: CYP2B1 content in GEC exposed to PAN (western blot); type: cell-based, rat; settings: PAN 1.5 mM for 2 hr at 37° C.; CM 2 mM, PIP 0.2 mM, pyruvate 10 mM
Text: (§1) The microsome fraction obtained was subjected to SDS-page electrophoresis in 1 mm slab gels. The separated forms were transferred from gel to a nitrocellulose sheet using a Mini Trans-blot electroblotting unit. The primary antibodies were monoclonal anti-HO-1 (OSA-111, StressGen, Victoria, BC, Canada) and monoclonal anti-CYP2B1 (PM25, Oxford Biomedical Research, Oxford, Mich., USA). Subsequent to primary and secondary antibody (peroxidase-labeled) treatment, the blots were visualized by enhanced chemiluminescence method.

[3] = system: CYP2B1; experiment: CYP2B1 content in glomeruli (immunohistochemistry, western blot); type: in vivo, rat; settings: PAN-treated rats, 6 hours to day 7
Text: as §1, with “method. Kidney cortical sections were fixed in 10% buffered formalin for 6 hours and embedded in paraffin. After deparaffinization and antigen retrieval, the sections were immunolabeled and visualized according to an avidin-biotin complex (ABC) method. The primary antibody for detection of ferritin was polyclonal anti-Ferritin (L subunit) antibody (605022; Boehringer Mannheim Corp., Indianapolis, Ind., USA).” for “method.”

[4] = system: heme oxidase (HO-1); experiment: HO-1 induction in kidney of PAN-treated rats (immunohistochemistry, western blot, RT-PCR); type: in vivo, rat
Text: as §1
Kidney cortical sections were fixed in 10% buffered formalin for 6 hours and embedded in paraffin. After deparaffinization and antigen retrieval, the sections were immunolabeled and visualized according to an avidin-biotin complex (ABC) method. The primary antibody for detection of ferritin was polyclonal anti-Ferritin (L subunit) antibody (605022; Boehringer Mannheim Corp., Indianapolis, Ind., USA).
RNA was isolated from the kidney cortex using TRIzol Reagant (Gibco, BRL, Gaithersburg, Md., USA). Revers transcription of […] of total RNA was carried out using Moloney murine leukemia virus reverse transcriptase (Gibco, BRL). The resulting first-strand cDNA preparations were used as templates for PCR. HO-1 primer described by Paschen et al (Neurosci Lett, 1994, 180:5-8.) were purchased from Gibco, BRL. The sense primer was: %′-[…]-3′, and the antisense 5′-[…]-3′. […]

[5] = system: glomerular epithelial cells GEC; experiment: PAN-induced cytotoxicity to GEC (trypan blue exclusion, LDH release); type: cell-based, rat; settings: PAN 1.5 mM 48 h; preincubation CM 2 mM, PB 25 μM, RN 1 mM, PIP 0.2 mM, pyruvate 10 mM
Experimental: Rat GEC (kindly provided by both Dr. Saulo Klahr, Washington University School of Medicine, St. Louis, Mo., and Dr. […], University of Texas Health Science Center, San Antonio, Tex.) were maintained in RPMI-1640 medium supplemented with 10% FBS, 15 mM HEPES, insulin, penicillin, streptomycin and L-glutamine in a humidified atmosphere of 95% air-5% CO2 at 37° C. and fed at intervals of 3 days ([…] et al, 1995, Biochem. Biophys. 318(2):286-294). The cells were maintained in 75 Cm^2 tissue culture flasks and the monolayers were subcultured using 0.05% trypsin-0.53 mM EDTA in Hank's balanced salt solution (HBSS). For the experimental study, the cells were grown in 12-well tissue culture plate until confluence. On the day of experiment, the medium was discarded and the confluent GEC monolayer was washed twice with HBSS. The cells were then incubated with various concentrations of PAN (0, 0.1, 0.5, 1.0, 1.5, and 2.0 mM in HBSS) for different periods of time (0, 6 hours, 1 day, 2 days, 3 days and 4 days) at 37° C. At the end of the incubation, the incubation medium was discarded and the GEC monolayer was harvested by trypsinization with 0.05% trypsin-0.53 mM EDTA for 5 min at 37° C. Isolated cells were suspended in HBSS to give about 10^6 cells/ml. PAN-induced cytotoxicity to GEC was measured by the trypan blue exclusion assay (Baliga et al, 1996, Kidney Intl. 50:1118-1124) and lactate dehydrogenase (LDH) release assay (Baliga et al., 1998, Kidney Intl. 53:394-401.). The latter is the percentage of LDH released into the medium, to total LDH recovered from both medium and cellular fraction. […] After the incubation, the cell monolayers were washed twice with HBSS and then incubated with cytotoxic dose of PAN in HBSS for a period of time necessary to induce consistent cytotoxicity ([…], 48 h, based on the concentration and time course studies) at 37° C. PAN induced cytotoxicity on GEC was measured by trypan blue exclusion assay.

In the case of `CN/C(=N/CCSCc1nc[nH]c1C)NC#N` [CM, cimetidine], the “bleomycin detectable (catalytic) iron release from GEC” value [1] is reported as “drastically prevents the increase; also recorded: prevented the increase”, the “CYP2B1 content in GEC” value [2] is reported as “preserved” and the “CYP2B1 content in the glomeruli” value [3] is reported as “preserved”.

`CN(C)c1ncnc2c1ncn2[C@@H]1O[C@H](CO)[C@@H](N)[C@H]1O` [PAN, puromycin aminonucleoside] was tested, and the “bleomycin detectable (catalytic) iron release from GEC” value [1] was “significant increase”, the “CYP2B1 content in GEC” value [2] was “significant reduction” and the “CYP2B1 content in the glomeruli” value [3] was “marked decrease”. The “HO-1 induction in the glomeruli and tubules” value ([4]; PAN-treated rats) was “marked induction”, the “HO-1 mRNA expression in the kidney” value ([4]; RT-PCR vs GAPDH, one hour to day 4 after PAN) was “significantly increase” and the “PAN-induced cytotoxicity to GEC” value [5] was “cytotoxic; also recorded: cell death in a time and dose dependent manner”.
